Measured values from patent US11458132B2, “Quinolin-2(1H)-one inhibitors of Late SV40 Factor” (TRUSTEES OF BOSTON UNIVERSITY, priority 2020, dated 2022).

Tests used:
[1] = test system: FH-B cells; assay: Cell motility tracking; type: cell-based, human; conditions: thymidine block, 4 μM FQI1
Protocol: Cell motility tracking: After overnight seeding in high μ-dishes, cells were synchronized by incubating in 2 mM thymidine for 18-20 hours. Thereafter, cells were treated with 4 μM FQI1 or vehicle (0.01% DMSO) for 1 hour, followed by a 10-min incubation in NucSpot® Live 650 dye (Biotium, 40082) following the manufacturer's instructions. Subsequently, cells were imaged every 2 minutes for 2 hours in an environmental chamber of a Nikon C2 Si microscope at 37° C. and 5% CO2 at 20× magnification. Cells that underwent mitosis during the 2-hour period were excluded from the analysis. Using ImageJ, individual nuclei were monitored using the Manual Tracking tool and the distances between starting and end points were integrated into swarmplots using Python's seaborn library.

[2] = test system: RPE cells; assay: Microtubule sedimentation assay; type: cell-based
Protocol: Cell lysate preparation: For microtubule sedimentation assays, cells were treated as indicated in the figure legends, washed with PBS and incubated in 250 μl of microtubule sedimentation assay lysis buffer (100 mM PIPES pH 6.8, 2 M glycerol, 2 mM EGTA, 5 mM MgCl2, 0.1% Triton X-100) supplemented with 1 μM taxol, protease inhibitor cocktail (1:200, Abcam, ab201111) and phosphatase inhibitor cocktail (1:100, Abcam, ab201115) for 20 minutes at 37° C. Two hundred μl of scraped lysate was centrifuged at 21,000×g for 10 minutes at room temperature. Supernatants were saved as soluble fractions. Pellets were resuspended in 200 μl RIPA buffer (50 mM Tris HCl pH 8.0, 150 mM NaCl, 1% IGEPAL CA630, 0.05% deoxycholic acid) supplemented with 1.05% SDS, protease inhibitor cocktail (1:200) and phosphatase inhibitor cocktail (1:100) and incubated at 100° C. for 15 minutes. Pellet suspensions were centrifuged as before and supernatants were saved as pellet fractions.
Gel electrophoresis and immunoblotting: Microtubule sedimentation fractions and MLC2 analysis samples were separated by electrophoresis through tris-glycine and tricine polyacrylamide gels, respectively, which were transferred to PVDF membranes. Membranes with microtubule sedimentation fractions and MLC2 analysis samples were blocked in 5% milk in TBST and in 5% BSA in TBST, respectively. After overnight incubation with primary antibody at 4° C., the membranes were washed and incubated with secondary antibody for 1 hour at room temperature. Primary antibodies included anti-α-tubulin (1:2,000, Thermo Fisher Scientific, PA529444), anti-acetylated tubulin (1:1,000, Sigma-Aldrich, T7451), anti-phospho MYL9 (1:200, Thermo Fisher Scientific, PA517727), and anti-β-actin (1:5,000, Sigma-Aldrich, A1978). Secondary antibodies included Goat anti-Rabbit HRP (Thermo Fisher Scientific, 31460; 1:10,000 for anti-α-tubulin; 1:5,000 for anti-phospho MYL9), and Goat anti-Mouse HRP (Thermo Fisher Scientific, 62-6520; 1:5,000 for anti-acetylated tubulin; 1:10,000-1:20,000 for anti-β-actin). Membranes were placed into Pierce™ ECL Western Blotting Substrate (Thermo Fisher Scientific, 32106). Autoradiography film was exposed to each membrane for various times to ensure acquisition of non-saturated exposures. Band intensities were quantified from scanned films by densitometry using ImageJ.

[3] = target: T1, LSF and β-catenin (Homo sapiens, UniProt Q12800); assay: Immunoprecipitation of β-catenin probed for LSF in CRC cells; type: cell-based; conditions: 1 μM, 16 hours, HT-29 and HCT-116 cells
T1 construct: In both these cell lines, LSF co-immunoprecipitated with β-catenin; endogenous in cells; host or cells: HT-29 and HCT-116
T1 sequence (Q12800 1-502): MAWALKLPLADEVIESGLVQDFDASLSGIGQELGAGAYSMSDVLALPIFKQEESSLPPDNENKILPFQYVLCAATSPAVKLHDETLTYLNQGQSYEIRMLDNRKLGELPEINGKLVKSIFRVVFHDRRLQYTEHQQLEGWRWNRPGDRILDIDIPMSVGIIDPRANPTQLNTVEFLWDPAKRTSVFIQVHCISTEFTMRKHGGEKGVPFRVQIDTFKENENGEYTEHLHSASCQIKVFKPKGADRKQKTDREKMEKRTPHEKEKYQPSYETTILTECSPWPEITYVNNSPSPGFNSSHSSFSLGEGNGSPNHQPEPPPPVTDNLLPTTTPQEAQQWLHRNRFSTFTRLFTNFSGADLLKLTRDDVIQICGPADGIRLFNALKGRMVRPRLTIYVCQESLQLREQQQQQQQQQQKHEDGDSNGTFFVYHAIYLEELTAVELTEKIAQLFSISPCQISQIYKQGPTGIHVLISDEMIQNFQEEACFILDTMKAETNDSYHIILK
Description: Immunoprecipitation: The CRC cells were harvested. Proteins of interest were immunoprecipitated using the indicated antibodies at 1:100 concentration. The eluents were resolved by SDS polyacrylamide gel electrophoresis and probed with the indicated antibodies. All the antibodies for immunoblot and immunoprecipitation were acquired from Cell Signaling and were used at the recommended concentrations.

[4] = test system: Wnt signaling in HCT-116 cells; assay: Wnt signaling assay (β-catenin-responsive luciferase reporter); type: cell-based; conditions: overnight
Protocol: Wnt signaling assay: The CRC cells stably expressing β-catenin-responsive promoter tethered to a luciferase reporter (pBARLS) or a mutant construct (pfuBARLS), as described previously, were seeded in 96-well plates. After 48 h of transfection, luciferase assays was performed using the Dual-Luciferase Kit (Promega) and normalized using protein content determined by the Bradford assay (Bio-Rad) as described previously^26-28.

With `CCOc1ccccc1C1CC(=O)Nc2cc3c(cc21)OCO3` (stereo not drawn) [FQI1, 8-(2-ethoxyphenyl)-7,8-dihydro-[1,3]dioxolo[4,5-g]quinolin-6(5H)-one] the “cell displacement over a 2-hour period” value [1] was “significantly smaller range of motion”, the “time after addition at which a drop in pelleted tubulin is observed” value ([2]; 4 μM FQI1) was 1 min and the “microtubule stability and α-tubulin acetylation in the microtubule fraction” value ([2]; 4 μM FQI1 (15- and 30-minute pellets), 1 μM nocodazole or taxol 30 minutes) was “increase in the amount of acetylated α-tubulin in the microtubule fraction”.
With `CCOc1cc(N(C)C)ccc1-c1cc(=O)[nH]c2cc3c(cc12)OCO3` [FQI2-34, 8-(4-(dimethylamino)-2-ethoxyphenyl)-[1,3]dioxolo[4,5-g]quinolin-6(5H)-one] the “interaction of LSF and β-catenin (co-immunoprecipitation)” value [3] was “consistently reduced this interaction”, the “Wnt activity at baseline” value ([4]; 0.1 μM up to 20 μM) was “inhibited Wnt activity in a monotonically decreasing manner” and the “concentrations that suppressed Wnt activity induced by lithium chloride” value [4] was no less than 0.1 µM.
